BindingDB's records for doi:10.1016/j.bmcl.2019.126899 (Sanford Burnham Prebys Medical Discovery Institute, 2020)

Assay: Inhibition of CXCR6-mediated cell invasion in human SKHEP1 cells after 72 hrs by transwell assay

Compound: COc1cc(C(=O)N[C@@H]2C[C@H]3CCC[C@@H](C2)N3Cc2nc3c(C(F)(F)F)cccc3s2)cc(OC)c1OC
- IC50: 2.1 µM
